Measured values published in patent publication US20240269321A1, “PREPARATION AND STORAGE OF LIPOSOMAL RNA FORMULATIONS SUITABLE FOR THERAPY” (BioNTech SE, priority 2020, published 2024).
Entries after “also recorded” stand apart in the source; their conditions may differ. Read-outs that look alike come from different tables or passages of the source. Blank lines part the entries; values can stand above or below the compound they belong to.

What was measured:
[1] = DOPE solubility in ethanol (HPLC); assay type: physicochemical
Description: DOPE and DOPE/DOTMA solubility in ethanol was investigated by preparing 300 mM DOPE or 330 mM DOPE/DOTMA (66:33) solutions in ethanol. The lipids were dissolved by incubating the lipid solutions at 37° C. for 20 minutes. The DOPE solutions were centrifuged at 17000 G for 1h and the DOPE concentration was measured in the supernatant by HPLC. The DOTMA/DOPE solutions were filtered through a 0.22 μm PES syringe filter and the lipid concentration was measured in the filtrate by HPLC. Lipid concentration in the different liposome formulations were measured by HPLC (Agilent technologies. Santa Clara. USA) using a Sunfire C18 2.5 μm 4.6×75 mm column (Waters. Massachusetts. USA) and a wave length of 205 nm. Mobile phase A was a mixture of 70% methanol/30% isopropanol/0.1% TFA, mobile phase B was a mixture of 55% methanol/15% isopropanol/30% water/0.1% TFA. Liposomes samples were or not diluted with water to 3 mM total lipid concentration. It has been tested if DOPE-containing solutions of higher concentration can be prepared (in the supersaturated state) and used for ethanol injection for liposome manufacturing (next section).

[2] = RNA integrity in RNA lipoplexes, accelerated storage at 25° C.; conditions: for stabilization of the RNA integrity by buffer system: 5 mM buffer, pH 6.0-7.0, liposomes with 2 mM acetic acid; for stability of the RNA in RNA lipoplexes by buffer system: 10% sucrose, 6.45 mM NaCl, liposomes with 5 mM acetic acid
Description: RNA lipoplexes are incubated under accelerated conditions (25° C.) in the presence of an exemplarily cryoprotectant. RNA integrity was analyzed by capillary electrophoresis over 60 days. Additionally, RNA lipoplexes are incubated under at the anticipated storage conditions (−15° C.) in the presence of an exemplarily cryoprotectant for up to two years. RNA integrity was analyzed by capillary electrophoresis.
The respective RNA lipoplexes were investigated under accelerated conditions (25° C.) and in the frozen state (−15° C.).
RNA lipoplexes were formed with liposomes containing 2 mM of acetic acid. The respective RNA lipoplexes were investigated under accelerated conditions (25° C.) and in the frozen state (−15° C.).
Method: All RNA lipoplexes were automatically prepared in a single batch and the different concentrations of HEPES were adjusted by the addition of a cryoprotectant solution containing different amounts of HEPES. Particle sizes and polydispersity of RNA lipolexes were analyzed by photon correlation spectroscopy (PCS) measurements. Additionally, the RNA integrity was analyzed by capillary electrophoresis and the pH was measured.
In the following study, the concentration of HEPES which is required for stabilization of the pH of the RNA lipoplexes was investigated. RNA lipoplexes were formed with liposomes containing 5 mM of acetic acid and different concentrations of HEPES were adjusted by using different cryoprotectant solutions and the respective RNA lipoplexes were investigated under accelerated conditions (25° C.). The pH range from pH 6.2 to 7.2 was tested.
In the following study, the long-term stability of RNA lipoplexes in the frozen state was investigated with the combination of the reduced concentration of NaCl and Sucrose in the presence of either HEPES or Histidine as a buffering agent at a pH of 6.5.
To analyze the RNA integrity, the RNA had to be isolated from the RNA lipoplexes. Cryoprotected RNA lipoplexes were mixed with RNeasy kit (Qiagen) RLT buffer in a ratio of 1 to 3.5. Then ethanol was added in a ratio of 1 part ethanol to 1.8 parts LPX-RLT.
The further RNA isolation was done using the RNeasy Mini Kit protocol and the RNeasy Mini Kit from Qiagen.
The integrity of the RNA was analyzed using a 48 capillary Fragment Analyzer Automated System by Advanced Analytical (AATI) according to the manufacturers instructions. Results were analyzed via PROSize 2.0 version 2.0.051 data analysis software.
Method: BM1 RNA lipoplexes were prepared as described above. All other RNA lipoplexes were prepared as described above with liposomes containing 5 mM acetic acid.
BM1 RNA lipoplexes were cryoprotected and RNA concentration adjusted as described above. All other RNA lipoplexes were cryoprotected by adding cryoprotection buffer containing the respective buffer substance in a ratio of 1 to 6.7. Final pH values were titrated by adding HCl or NaOH to the cryoprotected RNA lipoplexes, ending up to the following compositions:
Titrated, cryoprotected RNA lipoplexes were filled into 10R glass vials and stored at ambient temperature (25° C.) for at least 61 days. At defined points in time, two vials per group were collected and the RNA integrity was determined.

[3] = RNA integrity in RNA lipoplexes at 40° C. (capillary electrophoresis); conditions: 21 days, no cryoprotectant
Method: RNA lipoplexes are initially incubated under stress conditions (40° C.) in the absence of cryoprotectant. RNA integrity was analyzed by capillary electrophoresis over 21 days. In order to investigate the optimum pH range in the presence of an exemplary cryoprotectant, RNA lipoplexes were incubated in the presence of HEPES and sucrose at 40° C. and RNA integrity was analyzed for 21 days.
RNA integrity was analyzed as a key physicochemical parameter over 21 days.

[4] = Storage of drug product at −15° C., particle size and AF4; assay type: physicochemical; conditions: derived from AF4 data, worst-case conditions, 12 months
Description: The AF4 method is a fractionation technique for characterization and separation of nanoparticles, polymers and proteins based on their diffusion coefficient. The separation is achieved using hydrodynamic forces applied in the flat separation channel. Within a channel, a parabolic flow profile is created due to the laminar flow of mobile phase against which a perpendicular force field is applied. The separation was performed by an elution inject program with an inject flow of 0.2 mL/min, detector flow of 0.5 mL/min and crossflow of 1.5 mL/min. The eluted particles were detected by multi-angle light scattering (MALS) detector (HELLEOS II, Wyatt Technology Corp.Santa Barbara, CA, USA). The LS traces were recorded by ASTRA Software Version 7.1.3.25 (Wyatt Technology Europe, Dernbach Germany).
Method: BM1 RNA lipoplexes were prepared as described above.
All other RNA lipoplexes were cryoprotected by adding cryoprotection buffers with no EDTA disodium salt (groups 0 mM and 0.4 mM EDTA disodium salt) or with EDTA disodium salt in a ratio of 1 to 6.7 to generate different EDTA disodium salt concentrations in the final PD composition.
Method: RNA lipoplexes were prepared with increasing amounts of NaCl for condensation of the RNA and liposomes without acetic acid. […]

[5] = Description: The samples were frozen at −30° C. and then transferred to the respective temperature for long-term storage (either −15 or −30° C.). After defined storage time, samples were analyzed and preservation of the colloidal stability was analyzed by measuring the particle size using PCS. These experiments were performed at a total RNA concentration of 0.05 mg/mL.
Method: To investigate the minimum content of representative cryoprotectants as sucrose, trehalose, glucose and mixtures including dextran required for long-term storage at −20° C., RNA lipoplexes were frozen at a fixed cryoprotectant content in combination with varying NaCl concentrations. For monomeric or dimeric molecular cryoprotectants as glucose, sucrose, and trehalose a concentration of 22% (w/v) was adjusted. These formulations were frozen and stored at −15 to −40° C. and long-term stability was investigated by measuring the particle size using PCS after defined storage time.
The samples were frozen and stored at −20° C. After defined storage time, samples were analyzed and preservation of the colloidal stability was analyzed by measuring the particle size.

[6] = Freezing of RNA lipoplexes with cryoprotectants and NaCl (particle size); assay type: physicochemical; conditions: for preservation of particle size after a single freezing step: 20% (w/v) cryoprotectant, 0 to 60 mM NaCl, −30° C.
Description: Methods: Different compounds representative for monosaccharides (glucose and sorbitol), disaccharides (sucrose and trehalose), amino acids (arginine, prolin), triols (glycerin) as well as cryoprotectant systems containing mixtures of different sugars (mannitol and sucrose) were investigated in order to identify suited cryoprotectants (FIGS. 25 and 26). Therefore RNA lipoplexes were frozen in the presence of increasing concentration of these compounds. In order to identify minimum content of cryoprotectant at a certain concentration of NaCl, RNA lipoplexes were frozen in the presence of increasing amounts of sucrose or trehalose as representative cryoprotectants (Table 7). The samples were initially frozen a single time in order to determine the concentration range of cryoprotectant to be investigated in detail. In a third experiment, the efficacy of stabilization of the particle size was challenged by freezing of the RNA lipoplexes up to 10 times in the presence of the cryoprotectant trehalose (Table 8).

[7] = remark: listed apart in the source
Description: The mean value calculated from the first DOPE integrity values of the samples directly after manufacturing (0 month) was set to 1 as the initial integrity value of the respective study arm. The following values were normalized to this starting value.
Method: Liposomes were prepared as described above. To acidify the liposomes, different volumes of a 1 M stock solution of acetic acid was added to the liposomes with a total lipid concentration of 0.9 mM. After that, liposomes were stored at different acetic acid concentrations in a range from 0 mM to 3 mM up to a maximum of 6 months at different temperatures (4° C., 25° C. and 40° C.).

[8] = frozen with increasing amounts of cryoprotectant, Z-average, polydispersity, subvisible particles
[9] = 70 mM NaCl, up to 10 times freezing
[10] = 90 mM NaCl, up to 10 times freezing

Compound: CCCCCCCC/C=C\CCCCCCCC(=O)OC[C@H](COP(=O)(O)OCCN)OC(=O)CCCCCCC/C=C\CCCCCCCC [DOPE, 1,2-di-(9Z-octadecenoyl)-sn-glycero-3-phosphoethanolamine]
- DOPE solubility in ethanol [1]: 59 mM

Compound: O=P(O)(O)O [sodium phosphate]
- stabilization of the RNA (RNA integrity) by buffering system [3]: comparable results

Compound: O=C(O)[C@@H]1CCCN1 [proline]
- stabilization of RNA lipoplexes during freezing [6]: can be used as cryoprotectants for RNA lipoplexes

Compound: OC[C@@H](O)[C@@H](O)[C@H](O)[C@@H](O)CO [sorbitol]
- stabilization of RNA lipoplexes during freezing [6, 8]: can be used as cryoprotectants for RNA lipoplexes; also recorded: stabilization efficacy of sorbitol is lower

Compound: OCC(O)CO [Glycerin]
- stabilization of RNA lipoplexes during freezing [6, 8]: can be used as cryoprotectants for RNA lipoplexes

Compound: O=C([O-])[O-].[Na+].[Na+] [carbonate, sodium carbonate]
- stabilization of the RNA (RNA integrity) by buffering system [3]: did not result in comparable stabilization of the RNA

The next lines start with results.

- stabilization of the RNA integrity by buffer system [2]: slightly reduced stability
- stability of the RNA in RNA lipoplexes by buffer system [2]: lower stability
Compound: N[C@@H](Cc1c[nH]cn1)C(=O)O [Histidine]

- sucrose concentration to ensure long-term stability of the drug product [4]: at least 12 % (w/v)
- preservation of particle size after a single freezing step [6]: acceptable preservation of particle size
Compound: OC[C@H]1O[C@@](CO)(O[C@H]2O[C@H](CO)[C@@H](O)[C@H](O)[C@H]2O)[C@@H](O)[C@@H]1O [sucrose]
- stabilization efficacy on long-term storage [5]: No difference in the stabilization efficacy

- stability of the RNA in RNA lipoplexes by buffer system [2]: best stability
Compound: O=S(=O)(O)CCN1CCN(CCO)CC1 [HEPES, 2-[4-(2-hydroxyethyl)piperazin-1-yl]ethanesulfonic acid]
- stabilization of the RNA integrity by buffer system [2]: comparable stabilization of the RNA integrity
- RNA stability in the drug product by buffer ([2]; 61 days, pH 6.4 to 7.0, vs Histidine, MES, Na-Acetate): significantly enhanced RNA stability in the drug product

- acetic acid concentration above which stabilization efficacy plateaus ([7]; liposomes 0.9 mM total lipid): approx. 1 mM
Compound: CC(=O)O [acetic acid]
- stability of DOPE in liposomes (DOPE ester hydrolysis) ([7]; 0-3 mM acetic acid, 4° C., 25° C., 40° C., up to 6 months): Stability increases for all measured temperatures with increasing acetic acid concentration

- stabilization of RNA lipoplexes during freezing [6, 8]: clearly destabilizes the RNA lipoplexes
Compound: N=C(N)NCCC[C@H](N)C(=O)O [arginine]

- trehalose sufficient for stabilization of RNA lipoplex particle characteristics ([6]; 50 mM NaCl, even after 10 times freezing): ≥ 12.5%
- trehalose required for exact preservation of the particle size [6, 9]: ≥ 22.5%
- trehalose required for minimum stabilization [6, 9]: ≥ 12.5%
- trehalose required for minimum stabilization [6, 10]: ≥ 15.0%
- preservation of particle size after a single freezing step [6]: acceptable preservation of particle size
Compound: OC[C@H]1O[C@H](O[C@H]2O[C@H](CO)[C@@H](O)[C@H](O)[C@H]2O)[C@H](O)[C@@H](O)[C@@H]1O [trehalose]
- stabilization efficacy on long-term storage [5]: No difference in the stabilization efficacy
- exact preservation of the particle size [6, 10]: could not be achieved even with the highest investigated concentration of 27.5%
